Experimental data reported in patent publication US6077503A, “Skin whitener composition containing mercaptodextran” (Amway Corporation, priority 1997, dated 2000).

System: tyrosinase from mushroom
Test: Inhibition of mushroom tyrosinase (tyrosine substrate, absorbance at 475 nm after 24 hours)
Type: biochemical
Experimental: A buffer solution A containing 50 mM sodium acetate was prepared to yield a 6.8 pH. A tryosine solution was prepared by adding 15 mg of tyrosine to 100 ml of buffer solution A. A tyrosinase solution was prepared by adding 11.5 mg tyrosinase from mushroom (Serva Art. 37618, 72 μ/mg) in 1.2 ml. of buffer solution A. A test tube was charged with 2.7 ml of buffer solution A and 0.4 ml. water to define a blank. Similarly, another test tube was charged with 2.7 ml. of the tyrosine solution, 0.3 ml of water, and 0.1 ml of the tyrosinase solution to define a reference. The samples were stored for 24 hours at a temperature between 23° C. and 25° C. The absorbency of the reference was measured at 475 nm with a spectrophotometer and the absorbancy was set to zero. […] A test tube was charged with 2.7 ml of the tyrosine solution, 0.1 ml. of the tyrosinase solution and 1% mercaptodextran having a molecular weight of about 10,000 from Pharmacia Biotech. The sample was stored for 24 hours at a temperature between 23° C. and 25° C. The absorbancy of was measured at 24 hours. The percent inhibition of the tyrosinase of was calculated as follows: [formula]

[1] = Example 1 / Table 1, whitener 1.0 wt %, 24 hours at 23-25° C., pH 6.8

| Percent inhibition (24 hours) [1] | Percent inhibition (24 hours) (Example 2 / Table 2, whitening agent 1.0 wt %, 24 hours) | Compound |
| --- | --- | --- |
| 87.8% | 90.9% | O=c1cc(CO)occ1O [Kojic Acid] |
| 0.0% | – | O=c1oc2cc(O)ccc2s1 [Tioxolone] |
